Reference: ChEMBL document CHEMBL1255169, “Synthesis, structure-affinity relationships, and radiolabeling of selective high-affinity 5-HT4 receptor ligands as prospective imaging probes for positron emission tomography” (J Med Chem, 2010)
Active and inactive are the calls of the source. No cut-off for these calls is given here.

Experiments:
[1] = target: Muscarinic acetylcholine receptor M1 (Homo sapiens, UniProt P11229); test: Binding affinity to human muscarinic M1 receptor
D(1A) dopamine receptor = D(1A) dopamine receptor (Rattus norvegicus, UniProt P18901); test: Binding affinity to rat dopamine D1 receptor
[2] = target: Beta-2 adrenergic receptor (Rattus norvegicus, UniProt P10608); test: Binding affinity to rat adrenergic beta2 receptor
[3] = target: Sodium-dependent serotonin transporter (Homo sapiens, UniProt P31645); test: Binding affinity to human SERT
[4] = target: Alpha-2A adrenergic receptor (Homo sapiens, UniProt P08913); test: Binding affinity to human adrenergic alpha2A receptor
D(3) dopamine receptor = D(3) dopamine receptor (Rattus norvegicus, UniProt P19020); test: Binding affinity to rat dopamine D3 receptor
[5] = target: 5-hydroxytryptamine receptor 2A (Homo sapiens, UniProt P28223); test: Binding affinity to human 5-HT2A receptor
[6] = target: Muscarinic acetylcholine receptor M3 (Homo sapiens, UniProt P20309); test: Binding affinity to human muscarinic M3 receptor
[7] = target: Alpha-1D adrenergic receptor (Homo sapiens, UniProt P25100); test: Binding affinity to human adrenergic Alpha-1D receptor
[8] = target: 5-hydroxytryptamine receptor 2B (Homo sapiens, UniProt P41595); test: Binding affinity to human 5-HT2B receptor
Histamine H3 receptor = Histamine H3 receptor (Cavia porcellus, UniProt Q9JI35); test: Binding affinity to guinea pig histamine H3 receptor
[9] = target: 5-hydroxytryptamine receptor 4 (Cavia porcellus, UniProt O70528); test: Displacement of [3H]GR113808 from 5HT4 receptor in guinea pig striatal membranes; assay type: cell membranes, Striatum, Membrane
[10] = target: 5-hydroxytryptamine receptor 3A (Homo sapiens, UniProt P46098); test: Binding affinity to human 5-HT3 receptor
[11] = target: T1, 5-hydroxytryptamine receptor 4 (Homo sapiens, UniProt Q13639); test: Displacement of [3H]GR113808 from human recombinant 5HT4 receptor expressed in HEK293 cells; assay type: cell-based
[12] = target: Beta-3 adrenergic receptor (Rattus norvegicus, UniProt P26255); test: Binding affinity to rat adrenergic beta3 receptor
D(1B) dopamine receptor = D(1B) dopamine receptor (Homo sapiens, UniProt P21918); test: Binding affinity to human dopamine D5 receptor
D(4) dopamine receptor = target: T2, D(4) dopamine receptor (Rattus norvegicus, UniProt P30729); test: Binding affinity to rat dopamine D4 receptor
T2 sequence (P30729 whole entry): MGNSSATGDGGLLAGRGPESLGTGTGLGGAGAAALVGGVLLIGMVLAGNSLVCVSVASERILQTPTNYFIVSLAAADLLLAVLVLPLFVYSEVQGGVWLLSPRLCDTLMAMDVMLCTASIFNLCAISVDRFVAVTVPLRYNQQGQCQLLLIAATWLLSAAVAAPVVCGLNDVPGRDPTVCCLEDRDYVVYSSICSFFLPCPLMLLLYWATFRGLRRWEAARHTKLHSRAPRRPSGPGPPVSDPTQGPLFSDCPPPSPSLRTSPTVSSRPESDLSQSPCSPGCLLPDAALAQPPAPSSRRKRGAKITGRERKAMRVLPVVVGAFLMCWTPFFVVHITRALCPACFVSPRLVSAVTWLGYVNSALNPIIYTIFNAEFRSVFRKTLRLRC

Histamine H4 receptor = Histamine H4 receptor (Cavia porcellus, UniProt Q91ZY3); test: Binding affinity to guinea pig histamine H4 receptor
Histamine H2 receptor = Histamine H2 receptor (Cavia porcellus, UniProt P47747); test: Binding affinity to guinea pig histamine H2 receptor
[13] = target: Beta-1 adrenergic receptor (Rattus norvegicus, UniProt P18090); test: Binding affinity to rat adrenergic beta-1 receptor
[14] = target: Delta-type opioid receptor (Homo sapiens, UniProt P41143); test: Binding affinity to human delta opioid receptor
[15] = target: 5-hydroxytryptamine receptor 5A (Homo sapiens, UniProt P47898); test: Binding affinity to human 5-HT5A receptor
Histamine H1 receptor = Histamine H1 receptor (Cavia porcellus, UniProt P31389); test: Binding affinity to guinea pig histamine H1 receptor
[16] = target: 5-hydroxytryptamine receptor 1E (Homo sapiens, UniProt P28566); test: Binding affinity to human 5-HT1E receptor
[17] = target: 5-hydroxytryptamine receptor 7 (Homo sapiens, UniProt P34969); test: Binding affinity to human 5-HT7 receptor
[18] = target: Muscarinic acetylcholine receptor M5 (Homo sapiens, UniProt P08912); test: Binding affinity to human muscarinic M5 receptor
[19] = target: Sodium-dependent dopamine transporter (Homo sapiens, UniProt Q01959); test: Binding affinity to human DAT
[20] = target: T1, 5-hydroxytryptamine receptor 4; test: Antagonist activity at 5HT4 receptor expressed in HEK293/L9 cells by cAMP assay; assay type: functional, cell-based
D(2) dopamine receptor = D(2) dopamine receptor (Rattus norvegicus, UniProt P61169); test: Binding affinity to rat dopamine D2 receptor
[21] = Binding affinity to rat sigma 2 receptor
[22] = target: 5-hydroxytryptamine receptor 1B (Homo sapiens, UniProt P28222); test: Binding affinity to human 5-HT1B receptor
[23] = target: 5-hydroxytryptamine receptor 1A (Homo sapiens, UniProt P08908); test: Binding affinity to human 5-HT1A receptor
[24] = target: T1, 5-hydroxytryptamine receptor 4; test: Inverse agonist activity at 5HT4 receptor expressed in HEK293/L9 cells by cAMP assay; assay type: functional, cell-based
[25] = target: T1, 5-hydroxytryptamine receptor 4; test: Agonist activity at 5HT4 receptor expressed in HEK293/L9 cells by cAMP assay; assay type: functional, cell-based

T1 sequence (Q13639 whole entry): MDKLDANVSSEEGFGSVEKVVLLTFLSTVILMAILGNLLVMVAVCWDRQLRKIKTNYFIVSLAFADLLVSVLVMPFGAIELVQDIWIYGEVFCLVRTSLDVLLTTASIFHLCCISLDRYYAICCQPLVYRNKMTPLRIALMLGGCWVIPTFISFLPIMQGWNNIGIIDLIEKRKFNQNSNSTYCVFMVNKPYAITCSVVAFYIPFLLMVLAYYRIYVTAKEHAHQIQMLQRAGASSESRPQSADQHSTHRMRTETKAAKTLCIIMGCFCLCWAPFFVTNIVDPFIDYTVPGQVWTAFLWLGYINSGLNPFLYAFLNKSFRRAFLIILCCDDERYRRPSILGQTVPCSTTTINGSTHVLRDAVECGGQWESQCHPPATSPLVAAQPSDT
Muscarinic acetylcholine receptor M1, sequence (P11229 whole entry): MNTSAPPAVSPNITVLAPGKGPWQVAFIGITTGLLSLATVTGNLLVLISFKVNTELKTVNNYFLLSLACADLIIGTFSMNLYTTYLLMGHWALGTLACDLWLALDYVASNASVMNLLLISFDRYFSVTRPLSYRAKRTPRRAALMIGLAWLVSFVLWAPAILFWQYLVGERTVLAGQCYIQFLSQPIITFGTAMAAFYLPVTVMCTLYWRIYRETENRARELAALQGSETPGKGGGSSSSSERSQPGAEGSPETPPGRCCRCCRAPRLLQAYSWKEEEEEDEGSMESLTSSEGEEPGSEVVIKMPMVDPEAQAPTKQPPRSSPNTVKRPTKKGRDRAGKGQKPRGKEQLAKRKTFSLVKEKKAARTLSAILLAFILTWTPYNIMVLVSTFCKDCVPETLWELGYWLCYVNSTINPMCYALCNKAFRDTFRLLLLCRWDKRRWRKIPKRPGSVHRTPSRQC
D(2) dopamine receptor, sequence (P61169 whole entry): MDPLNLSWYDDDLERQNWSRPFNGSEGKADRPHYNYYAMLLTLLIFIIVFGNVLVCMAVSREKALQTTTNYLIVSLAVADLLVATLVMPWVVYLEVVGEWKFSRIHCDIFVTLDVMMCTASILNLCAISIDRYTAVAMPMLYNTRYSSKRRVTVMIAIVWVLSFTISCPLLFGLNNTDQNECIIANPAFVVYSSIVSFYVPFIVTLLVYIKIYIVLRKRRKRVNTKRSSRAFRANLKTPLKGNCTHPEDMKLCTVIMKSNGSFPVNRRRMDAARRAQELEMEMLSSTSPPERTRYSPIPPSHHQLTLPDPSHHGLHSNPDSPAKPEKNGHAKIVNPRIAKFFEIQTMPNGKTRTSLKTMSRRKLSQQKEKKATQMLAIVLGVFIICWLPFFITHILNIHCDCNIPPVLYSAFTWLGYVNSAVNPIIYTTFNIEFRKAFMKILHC
Beta-3 adrenergic receptor, sequence (P26255 whole entry): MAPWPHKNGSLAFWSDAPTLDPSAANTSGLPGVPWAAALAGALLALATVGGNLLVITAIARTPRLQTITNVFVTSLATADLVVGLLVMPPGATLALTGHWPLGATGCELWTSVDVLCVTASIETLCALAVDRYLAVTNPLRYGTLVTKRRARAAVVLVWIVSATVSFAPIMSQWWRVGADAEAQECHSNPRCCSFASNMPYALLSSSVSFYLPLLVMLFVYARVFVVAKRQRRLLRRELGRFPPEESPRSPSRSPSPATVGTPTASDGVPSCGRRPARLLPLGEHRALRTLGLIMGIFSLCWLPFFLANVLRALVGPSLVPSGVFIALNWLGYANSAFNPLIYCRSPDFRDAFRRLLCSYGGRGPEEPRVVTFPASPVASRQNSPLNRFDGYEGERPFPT
Alpha-2A adrenergic receptor, sequence (P08913 whole entry): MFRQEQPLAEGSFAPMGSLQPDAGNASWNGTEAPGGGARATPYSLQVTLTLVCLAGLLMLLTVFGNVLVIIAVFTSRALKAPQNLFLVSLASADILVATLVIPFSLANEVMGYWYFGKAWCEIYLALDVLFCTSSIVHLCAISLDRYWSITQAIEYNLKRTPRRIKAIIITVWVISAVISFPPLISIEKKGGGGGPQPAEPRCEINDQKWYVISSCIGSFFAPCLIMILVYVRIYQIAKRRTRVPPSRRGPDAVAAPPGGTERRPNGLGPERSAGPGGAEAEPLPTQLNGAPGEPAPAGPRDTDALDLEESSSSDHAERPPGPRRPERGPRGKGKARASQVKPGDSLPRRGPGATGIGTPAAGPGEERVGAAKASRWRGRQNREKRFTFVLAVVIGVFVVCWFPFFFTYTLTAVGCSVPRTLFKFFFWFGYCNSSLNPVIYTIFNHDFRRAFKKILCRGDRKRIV
5-hydroxytryptamine receptor 2B, sequence (P41595 whole entry): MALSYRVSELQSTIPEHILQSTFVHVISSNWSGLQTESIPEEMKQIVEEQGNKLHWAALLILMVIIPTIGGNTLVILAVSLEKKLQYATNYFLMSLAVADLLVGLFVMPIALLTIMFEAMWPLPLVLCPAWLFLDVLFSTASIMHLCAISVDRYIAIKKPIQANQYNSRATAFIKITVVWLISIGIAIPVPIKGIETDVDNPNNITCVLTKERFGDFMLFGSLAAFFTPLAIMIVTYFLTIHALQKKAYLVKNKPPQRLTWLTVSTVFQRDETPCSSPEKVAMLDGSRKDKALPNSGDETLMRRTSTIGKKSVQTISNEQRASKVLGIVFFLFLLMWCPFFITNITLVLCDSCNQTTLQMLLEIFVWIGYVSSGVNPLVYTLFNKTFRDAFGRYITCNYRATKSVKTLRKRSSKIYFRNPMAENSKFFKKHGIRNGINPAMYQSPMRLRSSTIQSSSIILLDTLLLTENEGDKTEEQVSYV
5-hydroxytryptamine receptor 3A, sequence (P46098 whole entry): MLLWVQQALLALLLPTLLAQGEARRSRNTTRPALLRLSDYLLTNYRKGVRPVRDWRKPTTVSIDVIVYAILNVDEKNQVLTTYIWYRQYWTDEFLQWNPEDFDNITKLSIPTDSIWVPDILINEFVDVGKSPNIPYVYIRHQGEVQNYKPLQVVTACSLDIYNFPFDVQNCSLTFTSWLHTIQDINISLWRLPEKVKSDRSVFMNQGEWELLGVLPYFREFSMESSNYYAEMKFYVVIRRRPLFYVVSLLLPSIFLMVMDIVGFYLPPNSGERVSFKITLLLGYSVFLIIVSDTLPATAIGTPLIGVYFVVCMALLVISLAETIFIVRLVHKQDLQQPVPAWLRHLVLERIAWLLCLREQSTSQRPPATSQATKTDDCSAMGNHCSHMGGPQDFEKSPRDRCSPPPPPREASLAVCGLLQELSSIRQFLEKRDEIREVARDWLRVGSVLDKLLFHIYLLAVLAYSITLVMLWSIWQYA
Muscarinic acetylcholine receptor M3, sequence (P20309 whole entry): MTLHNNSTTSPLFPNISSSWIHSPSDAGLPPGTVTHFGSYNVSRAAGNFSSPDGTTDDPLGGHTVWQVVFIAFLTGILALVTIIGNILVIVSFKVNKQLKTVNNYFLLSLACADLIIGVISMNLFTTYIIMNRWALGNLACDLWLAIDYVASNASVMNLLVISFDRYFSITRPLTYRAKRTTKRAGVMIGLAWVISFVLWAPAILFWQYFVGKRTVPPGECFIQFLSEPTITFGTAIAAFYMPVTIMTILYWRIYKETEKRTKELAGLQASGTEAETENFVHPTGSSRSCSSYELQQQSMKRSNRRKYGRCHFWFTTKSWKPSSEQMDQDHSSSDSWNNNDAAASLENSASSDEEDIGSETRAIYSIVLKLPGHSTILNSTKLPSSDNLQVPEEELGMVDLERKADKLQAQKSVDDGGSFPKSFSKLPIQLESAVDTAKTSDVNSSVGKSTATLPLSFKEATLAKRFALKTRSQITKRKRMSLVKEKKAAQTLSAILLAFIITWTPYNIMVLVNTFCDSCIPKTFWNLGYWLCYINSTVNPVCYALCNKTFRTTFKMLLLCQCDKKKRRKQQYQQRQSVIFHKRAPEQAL
Histamine H2 receptor, sequence (P47747 whole entry): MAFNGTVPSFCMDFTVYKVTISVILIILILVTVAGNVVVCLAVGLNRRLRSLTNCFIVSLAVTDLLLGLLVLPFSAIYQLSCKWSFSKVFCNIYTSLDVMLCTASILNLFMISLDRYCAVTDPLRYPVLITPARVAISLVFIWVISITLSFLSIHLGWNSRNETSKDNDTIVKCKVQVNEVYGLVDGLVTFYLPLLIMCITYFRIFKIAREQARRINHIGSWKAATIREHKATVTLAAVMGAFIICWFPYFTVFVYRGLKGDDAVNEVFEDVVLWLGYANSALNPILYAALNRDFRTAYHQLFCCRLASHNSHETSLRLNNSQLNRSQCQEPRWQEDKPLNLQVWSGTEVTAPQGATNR
5-hydroxytryptamine receptor 2A, sequence (P28223 whole entry): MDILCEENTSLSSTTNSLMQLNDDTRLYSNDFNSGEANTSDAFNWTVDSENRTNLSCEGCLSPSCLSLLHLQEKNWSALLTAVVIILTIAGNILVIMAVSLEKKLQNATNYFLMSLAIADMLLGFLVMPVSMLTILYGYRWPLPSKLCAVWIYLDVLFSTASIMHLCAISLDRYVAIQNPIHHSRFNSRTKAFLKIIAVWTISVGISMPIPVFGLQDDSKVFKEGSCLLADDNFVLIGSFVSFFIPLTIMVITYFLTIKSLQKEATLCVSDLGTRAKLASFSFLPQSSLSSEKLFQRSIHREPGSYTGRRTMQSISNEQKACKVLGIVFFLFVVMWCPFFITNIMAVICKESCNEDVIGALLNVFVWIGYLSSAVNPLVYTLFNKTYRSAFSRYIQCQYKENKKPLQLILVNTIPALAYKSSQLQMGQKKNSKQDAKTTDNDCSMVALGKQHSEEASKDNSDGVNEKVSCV
Histamine H4 receptor, sequence (Q91ZY3 whole entry): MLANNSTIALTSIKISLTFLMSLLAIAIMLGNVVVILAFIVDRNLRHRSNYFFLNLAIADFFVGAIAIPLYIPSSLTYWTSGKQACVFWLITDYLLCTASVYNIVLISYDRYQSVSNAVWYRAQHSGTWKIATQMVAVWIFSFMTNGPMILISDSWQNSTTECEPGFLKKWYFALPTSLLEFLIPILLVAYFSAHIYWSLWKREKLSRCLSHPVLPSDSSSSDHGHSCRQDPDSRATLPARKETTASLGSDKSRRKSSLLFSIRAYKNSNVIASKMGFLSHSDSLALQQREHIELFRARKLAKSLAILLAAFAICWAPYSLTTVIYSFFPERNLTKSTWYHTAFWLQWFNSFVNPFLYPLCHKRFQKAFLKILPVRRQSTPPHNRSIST

Row | Compound | Ki [1] [µM] | Ki (D(1A) dopamine receptor) [µM] | Ki [2] [µM] | Ki [3] [µM] | Ki [4] [µM] | Ki (D(3) dopamine receptor) [µM] | Ki [5] [µM] | Ki [6] [µM] | Ki [7] [µM] | Ki [8] [µM] | Ki (Histamine H3 receptor) [µM] | Ki [9] [µM] | Ki [10] [µM] | Ki [11] [µM] | Ki [12] [µM] | Ki (D(1B) dopamine receptor) [µM] | Ki (D(4) dopamine receptor) [µM] | Ki (Histamine H4 receptor) [µM] | Ki (Histamine H2 receptor) [µM] | Ki [13] [µM] | also measured
1 | CCCCN1CCC(COC(=O)c2ccc(N)c(OC)c2)CC1 | > 10 | > 10 | > 10 | > 10 | > 10 | 6.27 | > 10 | 1.1 | > 10 | 2.86 | 1.65 | 0.000738 | 3.51 | 0.0024 | > 10 | > 10 | 1.27 | > 10 | > 10 | 4.41 | Ki [14]: > 10 µM; Ki [15]: > 10 µM; Ki (Histamine H1 receptor): > 10 µM; Ki [16]: > 10 µM; Ki [17]: > 10 µM; Ki [18]: 4.06 µM; Ki [19]: > 10 µM; Efficacy [20]: Active; Ki (D(2) dopamine receptor): > 10 µM; Ki [21]: 0.148 µM; Ki [22]: > 10 µM; Ki [23]: > 10 µM
2 | CCCCN1CCC(COC(=O)c2cc(Cl)c(NC)c3c2OCCO3)CC1 | > 10 | 2.29 | > 10 | 9.01 | 2.24 | 0.336 | 1.78 | 0.823 | 2.28 | 0.066 | > 10 | 0.000577 | 1.07 | 0.002 | > 10 | 0.972 | 0.043 | > 10 | > 10 | > 10 | Efficacy [24]: Active; EC50 [25]: 0.0141 µM; Ki [14]: > 10 µM; Ki [15]: 8.59 µM; Ki (Histamine H1 receptor): 2.73 µM; Ki [17]: 5.7 µM; Ki [18]: 0.972 µM; Ki [19]: 2.02 µM; Ki (D(2) dopamine receptor): 0.22 µM; Ki [21]: 0.008 µM; Ki [22]: 0.82 µM; Ki [23]: 0.3 µM
